Test results reported in US12290551B2, “Methods for imaging and treatment of somatostatin-receptor positive tumors” (Corcept Therapeutics Incorporated, priority 2018, dated 2025).

How the values were obtained:
Type in all cases: in vivo, human
[1] = system: Cushing's syndrome patients; test: 24-hr Urinary Free Cortisol, Group 2, 16 week ascending-dose relacorilant study
Excerpt: (§1) Cortisol levels can be measured in a biological sample, such as saliva, urine, whole blood, serum, plasma, or any other biological fluid taken from a patient suffering from Cushing's syndrome. Such samples are typically analyzed in vitro. In some cases, the same sample is used to measure cortisol level and ACTH level. In other cases, different samples are used to measure cortisol and ACTH levels. For example, cortisol levels can be measured in saliva or urine, and ACTH levels can be measured in plasma. In yet other cases, different samples of the same type are used to measure the levels. Methods for measuring cortisol levels are known to those in the art. Useful assays include immunoassays, e.g., competitive immunoassay, radioimmunoassay, immunofluorometric enzyme assay, and ELISA, competitive protein-binding assay and mass spectrometry, e.g., high-performance liquid chromatography/triple quadrupole-mass spectrometry (LC-MS/MS). Commercial kits for measuring cortisol in sample are available from, e.g., Beckman-Coulter, Seimens, Roche Diagnostics, and the like. Non-limiting examples of an immunoassay include an ADVIA Centaur® Cortisol assay (Siemens Healthcare Global), […] i2000SR cortisol (Abbott), Immulite® 2000 Cortisol assay (Siemans Healthcare Global; #L2KCO2), Vitros® ECi Cortisol assay (Ortho Clinical Diagnostics; #107 4053), and Elecsys® Cortisol Immunoassay (Roche Molecular Diagnostics; #11875116160).
Cortisol levels were measured in a second group of Cushing's syndrome patients who were administered doses of relacorilant. Urinary Free Cortisol (UFC) was measured in these patients over the course of a 16 week study in which ascending doses of relacorilant were administered.

[2] = system: Cushing's syndrome patients; test: Mean ACTH levels in relacorilant Groups 1 and 2
Excerpt: Cortisol levels obtained for individual patients and the UFC tabular summary (Tables 1 and 2 above) show no significant changes from baseline in UFC.

[3] = system: Cushing's syndrome patients; test: 24-hr Urinary Free Cortisol, Group 1, 12 week ascending-dose relacorilant study; details: for change in cortisol levels: Cushing's syndrome patients, Groups 1 and 2 (Tables 1 and 2); for Mean 24-hr UFC: Group 1, baseline 215.6
Excerpt: as §1
Cortisol levels were measured in Cushing's syndrome patients who were administered doses of the heteroaryl-ketone fused azadecalin compound relacorilant. Urinary Free Cortisol (UFC) was measured in these patients over the course of a 12 week study in which ascending doses of relacorilant were administered.

[4] = system: Cushing's syndrome patients; test: Drug-induced hypokalemia in Phase 2 study of relacorilant
[5] = system: ectopic tumor (somatostatin receptor expression); test: Indium octreoscan imaging of ectopic tumor before and after relacorilant treatment; details: one patient; oral once daily 250, 300, 350, 400 mg/day, four weeks each; 111Indium octreotide
Method: In a further attempt to image, and to localize, the tumor in the patient, an indium octreoscan image (patient was administered Octreotide radiolabeled with ^111Indium prior to imaging) was obtained, in which a dot was seen which enabled localization of the tumor to the right lung/mediastinum region of the patient.
Relacorilant was then orally administered to the patient once per day for four months. The patient was administered 250 milligrams (mg) per day of relacorilant for four weeks, followed by 300 mg/day relacorilant for the next four weeks, followed by 350 mg/day relacorilant for a further four weeks, and then was administered 400 mg relacorilant for another four weeks.
The indium octreoscan image of FIG. 2 provides a much improved and enhanced image of the tumor in the patient as compared to the image of FIG. 1. It is believed that the improvement in the indium octreoscan image of FIG. 2 as compared to the image shown in FIG. 1 was due to increased somatostatin receptor expression, e.g., due to increased sst2 receptor expression, as compared to that expression prior to the relacorilant treatment.

Cn1cc(S(=O)(=O)N2CCC3=Cc4c(cnn4-c4ccc(F)cc4)C[C@]3(C(=O)c3cc(C(F)(F)F)ccn3)C2)cn1 [relacorilant, (R)-(1-(4-fluorophenyl)-6-((1-methyl-1H-pyrazol-4-yl)sulfonyl)-4,4a,5,6,7,8-hexahydro-1H-pyrazolo[3,4-g]isoquinolin-4a-yl)(4-(trifluoromethyl)pyridin-2-yl)methanone]
Mean 24-hr UFC ([1]; relacorilant 250 mg, Wk 2, baseline 228.1): 252.1 µg/day | Mean 24-hr UFC ([1]; relacorilant 250 mg, Wk 4, baseline 228.1): 218.2 µg/day | Mean 24-hr UFC ([1]; relacorilant 300 mg, Wk 6, baseline 228.1): 257.4 µg/day | Mean 24-hr UFC ([1]; relacorilant 300 mg, Wk 8, baseline 228.1): 149.1 µg/day | Mean 24-hr UFC ([1]; relacorilant 350 mg, Wk 10, baseline 228.1): 185.4 µg/day | Mean 24-hr UFC ([1]; relacorilant 350 mg, Wk 12, baseline 228.1): 249.0 µg/day | Mean 24-hr UFC ([1]; relacorilant 400 mg, Wk 14, baseline 228.1): 194.1 µg/day | Mean 24-hr UFC ([1]; relacorilant 400 mg, Wk 16, baseline 228.1): 203.1 µg/day | mean ACTH ([2]; Group 1, Week 12, SD 10.34, Baseline 11.02±8.04): 14.68 pmol/L | mean ACTH ([2]; Group 2, Week 16 or last-observed, SD 10.72, Baseline 12.79±8.36): 15.56 pmol/L | change in ACTH ([2]; baseline to end of treatment): only modest increases in ACTH | change in cortisol levels [3]: does not lead to significant increases in cortisol levels | change in cortisol levels ([3]; listed as Relacorilant): no increases in cortisol concentrations | Mean 24-hr UFC ([3]; relacorilant 100 mg, Wk 2): 151.8 µg/day | Mean 24-hr UFC ([3]; relacorilant 100 mg, Wk 4): 157.0 µg/day | Mean 24-hr UFC ([3]; relacorilant 150 mg, Wk 6): 145.3 µg/day | Mean 24-hr UFC ([3]; relacorilant 150 mg, Wk 8): 134.9 µg/day | Mean 24-hr UFC ([3]; relacorilant 200 mg, Wk 10): 180.9 µg/day | Mean 24-hr UFC ([3]; relacorilant 200 mg, Wk 12): 211.6 µg/day | drug-induced hypokalemia [4]: lack of drug-induced hypokalemia | effect on indium octreoscan images of the ectopic tumor [5]: enhanced
